In ChEMBL document CHEMBL2440076, “New triarylpyrazoles as broad-spectrum anticancer agents: design, synthesis, and biological evaluation” (Eur J Med Chem, 2013):

Legend:
[1] = test system: MCF7; test: Growth inhibition of human MCF7 cells assessed as cell growth at 10 uM after 48 hrs by sulforhodamine B assay; assay type: functional; settings: MCF7, 48 h, read-out: Activity
[2] = test system: RXF 393; test: Growth inhibition of human RXF393 cells assessed as cell growth at 10 uM after 48 hrs by sulforhodamine B assay; assay type: functional; settings: RXF 393, 48 h, read-out: Activity
[3] = Growth inhibition of human NCI-ADR-RES cells assessed as cell growth at 10 uM after 48 hrs by sulforhodamine B assay; assay type: functional; settings: read-out: Activity
[4] = test system: OVCAR-3; test: Growth inhibition of human OVCAR3 cells assessed as cell growth at 10 uM after 48 hrs by sulforhodamine B assay; assay type: functional; settings: OVCAR-3, 48 h, read-out: Activity
[5] = test system: IGROV-1; test: Growth inhibition of human IGROV1 cells assessed as cell growth at 10 uM after 48 hrs by sulforhodamine B assay; assay type: functional; settings: IGROV-1, 48 h, read-out: Activity
[6] = test system: UACC-257; test: Growth inhibition of human UACC257 cells assessed as cell growth at 10 uM after 48 hrs by sulforhodamine B assay; assay type: functional; settings: UACC-257, 48 h, read-out: Activity
[7] = test system: LOX IMVI; test: Growth inhibition of human LOXIMVI cells assessed as cell growth at 10 uM after 48 hrs by sulforhodamine B assay; assay type: functional; settings: read-out: Activity
[8] = test system: SF-539; test: Growth inhibition of human SF539 cells assessed as cell growth at 10 uM after 48 hrs by sulforhodamine B assay; assay type: functional; settings: SF-539, 48 h, read-out: Activity
[9] = test system: HCT-15; test: Growth inhibition of human HCT15 cells assessed as cell growth at 10 uM after 48 hrs by sulforhodamine B assay; assay type: functional; settings: HCT-15, 48 h, read-out: Activity
[10] = test system: HCT-116; test: Growth inhibition of human HCT116 cells assessed as cell growth at 10 uM after 48 hrs by sulforhodamine B assay; assay type: functional; settings: HCT-116, 48 h, read-out: Activity
[11] = Growth inhibition of human HCC2998 cells assessed as cell growth at 10 uM after 48 hrs by sulforhodamine B assay; assay type: functional; settings: HCC 2998, 48 h, read-out: Activity
[12] = test system: COLO 205; test: Growth inhibition of human COLO205 cells assessed as cell growth at 10 uM after 48 hrs by sulforhodamine B assay; assay type: functional; settings: COLO 205, 48 h, read-out: Activity
[13] = test system: NCI-H522; test: Growth inhibition of human NCI-H522 cells assessed as cell growth at 10 uM after 48 hrs by sulforhodamine B assay; assay type: functional; settings: NCI-H522, 48 h, read-out: Activity
[14] = test system: NCI-H460; test: Growth inhibition of human NCI-H460 cells assessed as cell growth at 10 uM after 48 hrs by sulforhodamine B assay; assay type: functional; settings: NCI-H460, 48 h, read-out: Activity
[15] = test system: NCI-H226; test: Growth inhibition of human NCI-H226 cells assessed as cell growth at 10 uM after 48 hrs by sulforhodamine B assay; assay type: functional; settings: NCI-H226, 48 h, read-out: Activity
[16] = test system: MOLT-4; test: Growth inhibition of human MOLT4 cells assessed as cell growth at 10 uM after 48 hrs by sulforhodamine B assay; assay type: functional; settings: MOLT-4, 48 h, read-out: Activity
[17] = test system: CCRF-CEM; test: Growth inhibition of human CCRF-CEM cells assessed as cell growth at 10 uM after 48 hrs by sulforhodamine B assay; assay type: functional; settings: read-out: Activity
[18] = test system: HL-60(TB); test: Growth inhibition of human HL-60(TB) cells assessed as cell growth at 10 uM after 48 hrs by sulforhodamine B assay; assay type: functional; settings: HL-60, 48 h, read-out: Activity
[19] = test system: HCT-116; test: Growth inhibition of human HCT116 cells after 48 hrs by sulforhodamine B assay; assay type: functional; settings: HCT-116, 48 h
[20] = test system: NCI-H460; test: Growth inhibition of human NCI-H460 cells after 48 hrs by sulforhodamine B assay; assay type: functional; settings: NCI-H460, 48 h
[21] = test system: NCI-H322M; test: Growth inhibition of human NCI-H322M cells after 48 hrs by sulforhodamine B assay; assay type: functional
[22] = test system: NCI-H226; test: Growth inhibition of human NCI-H226 cells after 48 hrs by sulforhodamine B assay; assay type: functional; settings: NCI-H226, 48 h
[23] = test system: HOP-92; test: Growth inhibition of human HOP92 cells after 48 hrs by sulforhodamine B assay; assay type: functional, cell-based; settings: HOP-92, 48 h
[24] = test system: A549; test: Growth inhibition of human A549/ATCC cells after 48 hrs by sulforhodamine B assay; assay type: functional; settings: A549, 48 h
[25] = test system: MOLT-4; test: Growth inhibition of human MOLT4 cells after 48 hrs by sulforhodamine B assay; assay type: functional; settings: MOLT-4, 48 h
[26] = Growth inhibition of human Hs 578T cells after 48 hrs by sulforhodamine B assay; assay type: functional
[27] = test system: DU-145; test: Growth inhibition of human DU145 cells after 48 hrs by sulforhodamine B assay; assay type: functional; settings: DU-145, 48 h
[28] = test system: PC-3; test: Growth inhibition of human PC3 cells after 48 hrs by sulforhodamine B assay; assay type: functional, cell-based; settings: PC-3, 48 h
[29] = test system: SN12C; test: Growth inhibition of human SN12C cells after 48 hrs by sulforhodamine B assay; assay type: functional
[30] = test system: SK-OV-3; test: Growth inhibition of human SKOV3 cells after 48 hrs by sulforhodamine B assay; assay type: functional; settings: SK-OV-3, 48 h
[31] = Growth inhibition of human NCI-ADR-RES cells after 48 hrs by sulforhodamine B assay; assay type: functional
[32] = test system: OVCAR-3; test: Growth inhibition of human OVCAR3 cells after 48 hrs by sulforhodamine B assay; assay type: functional, cell-based; settings: OVCAR-3, 48 h
[33] = test system: Malme-3M; test: Growth inhibition of human MALME-3M cells after 48 hrs by sulforhodamine B assay; assay type: functional
[34] = test system: SF-268; test: Growth inhibition of human SF268 cells after 48 hrs by sulforhodamine B assay; assay type: functional; settings: SF-268, 48 h
[35] = read-out: LC50 (the source's name)

Compound: COc1cc(-c2nn(-c3cccc(NC(=O)c4ccc(Br)c(C)c4)c3)cc2-c2ccncc2)ccc1Cl
- growth at 10 µM [1]: 75%
- growth at 10 µM [2]: 41.7%
- growth at 10 µM [3]: 66.5%
- growth at 10 µM [4]: 90.9%
- growth at 10 µM [5]: 76.2%
- growth at 10 µM [6]: 79.5%
- growth at 10 µM [7]: 75.4%
- growth at 10 µM [8]: 76.8%
- growth at 10 µM [9]: 67.8%
- growth at 10 µM [10]: 70.3%
- growth at 10 µM [11]: 88.2%
- growth at 10 µM [12]: 76.2%
- growth at 10 µM [13]: 45.1%
- growth at 10 µM [14]: 80.9%
- growth at 10 µM [15]: 84.7%
- growth at 10 µM [16]: 68.7%
- growth at 10 µM [17]: 74.6%
- growth at 10 µM [18]: 114%

Compound: COc1cc(-c2nn(-c3cccc(NC(=O)c4ccc(N5CCOCC5)c(C(F)(F)F)c4)c3)cc2-c2ccncc2)ccc1Cl
- growth at 10 µM [1]: 8.85%
- GI50 [19]: 0.4 µM
- TGI [19]: > 100 µM
- CC50 [19, 35]: > 100 µM
- GI50 [20]: 0.336 µM
- LC50 [20]: > 100 µM
- TGI [20]: > 100 µM
- GI50 [21]: 0.603 µM
- TGI [21]: 94.4 µM
- CC50 [21, 35]: > 100 µM
- GI50 [22]: 0.427 µM
- TGI [22]: > 100 µM
- CC50 [22, 35]: > 100 µM
- GI50 [23]: 0.124 µM
- IC50 [23]: 0.12 µM
- LC50 [23]: > 100 µM
- TGI [23]: 0.813 µM
- GI50 [24]: 0.315 µM
- LC50 (concentration killing 50% of starting cells) [24]: > 100 µM
- TGI [24]: > 100 µM
- GI50 [25]: 0.669 µM
- TGI [25]: > 100 µM
- CC50 [25, 35]: > 100 µM
- growth at 10 µM [2]: -45.2%
- growth at 10 µM [3]: -7.13%
- growth at 10 µM [4]: -29.9%
- growth at 10 µM [5]: 41.8%
- growth at 10 µM [6]: 24.3%
- growth at 10 µM [7]: 13.7%
- growth at 10 µM [8]: -68.9%
- growth at 10 µM [9]: 16.7%
- growth at 10 µM [10]: 8.35%
- growth at 10 µM [11]: 8.82%
- growth at 10 µM [12]: -43.4%
- growth at 10 µM [13]: 0.2%
- growth at 10 µM [14]: 5.02%
- growth at 10 µM [15]: 42.5%
- GI50 [26]: 0.262 µM
- TGI [26]: > 100 µM
- CC50 [26, 35]: > 100 µM
- GI50 [27]: 0.388 µM
- LC50 [27]: > 100 µM
- TGI [27]: > 100 µM
- GI50 [28]: 0.251 µM
- IC50 [28]: 0.25 µM
- TGI [28]: 14.7 µM
- CC50 [28, 35]: > 100 µM
- GI50 [29]: 1.09 µM
- TGI [29]: > 100 µM
- CC50 [29, 35]: > 100 µM
- GI50 [30]: 0.34 µM
- TGI [30]: 4.73 µM
- CC50 [30, 35]: > 100 µM
- GI50 [31]: 0.228 µM
- TGI [31]: > 100 µM
- CC50 [31, 35]: > 100 µM
- GI50 [32]: 0.222 µM
- IC50 [32]: 0.22 µM
- TGI [32]: 1.03 µM
- CC50 [32, 35]: > 100 µM
- GI50 [33]: 0.129 µM
- LC50 (concentration killing 50% of starting cells) [33]: > 100 µM
- TGI [33]: 5.1 µM
- GI50 [34]: 0.668 µM
- TGI [34]: > 100 µM
- CC50 [34, 35]: > 100 µM
- growth at 10 µM [16]: 4.07%
- growth at 10 µM [17]: 0.91%
- growth at 10 µM [18]: -8.08%

Compound: O=C(Nc1cccc(-n2cc(-c3ccncc3)c(-c3ccc(Cl)c(O)c3)n2)c1)c1ccc(Cl)c(C(F)(F)F)c1
- growth at 10 µM [1]: 93.9%
- growth at 10 µM [2]: 104%
- growth at 10 µM [3]: 104%
- growth at 10 µM [4]: 95.8%
- growth at 10 µM [5]: 98.4%
- growth at 10 µM [6]: 104%
- growth at 10 µM [7]: 91.3%
- growth at 10 µM [8]: 94.7%
- growth at 10 µM [9]: 92.9%
- growth at 10 µM [10]: 100%
- growth at 10 µM [11]: 123%
- growth at 10 µM [12]: 104%
- growth at 10 µM [13]: 94.4%
- growth at 10 µM [14]: 104%
- growth at 10 µM [15]: 103%
- growth at 10 µM [16]: 79.5%
- growth at 10 µM [17]: 98.8%
- growth at 10 µM [18]: 196%

Compound: COc1cc(-c2nn(-c3cccc(NC(=O)Nc4ccccc4)c3)cc2-c2ccncc2)ccc1Cl
- growth at 10 µM [1]: 88.8%
- growth at 10 µM [2]: 72.8%
- growth at 10 µM [3]: 72.8%
- growth at 10 µM [4]: 86.4%
- growth at 10 µM [5]: 86.5%
- growth at 10 µM [6]: 84.5%
- growth at 10 µM [7]: 85.4%
- growth at 10 µM [8]: 90%
- growth at 10 µM [9]: 84.5%
- growth at 10 µM [10]: 87.2%
- growth at 10 µM [11]: 119%
- growth at 10 µM [12]: 92.4%
- growth at 10 µM [13]: 67.4%
- growth at 10 µM [14]: 93.7%
- growth at 10 µM [15]: 92.3%
- growth at 10 µM [16]: 57%
- growth at 10 µM [17]: 83.3%
- growth at 10 µM [18]: 91.3%

Compound: O=C(Nc1cccc(-n2cc(-c3ccncc3)c(-c3ccc(Cl)c(O)c3)n2)c1)c1ccccc1
- growth at 10 µM [1]: 62.6%
- growth at 10 µM [2]: 0.59%
- growth at 10 µM [3]: 62.7%
- growth at 10 µM [4]: 82.1%
- growth at 10 µM [5]: 88%
- growth at 10 µM [6]: 44.2%
- growth at 10 µM [7]: 68.5%
- growth at 10 µM [8]: 74.7%
- growth at 10 µM [9]: 58.2%
- growth at 10 µM [10]: 57.8%
- growth at 10 µM [11]: 76.8%
- growth at 10 µM [12]: 100%
- growth at 10 µM [13]: 42.3%
- growth at 10 µM [14]: 48.7%
- growth at 10 µM [15]: 89.6%
- growth at 10 µM [16]: 69.5%
- growth at 10 µM [17]: 67.5%
- growth at 10 µM [18]: 167%
